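Where inhibition never reached the appropriate level, the endpoint shown equals the highest concentration tested. Otherwise, values were interpolated linearly from a five-concentration, 48-hour dose response in 96-well plates. GI50: concentration for 50% inhibition of growth. TGI: total growth inhibition.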
Columns and labels:
Assay in all cases: NCI tumour cell line growth inhibition, 48 h
[1] = tested on: UACC-62 melanoma
[2] = tested on: NCI-H522 lung
[3] = tested on: NCI-H226 lung
[4] = tested on: NCI/ADR-RES ovarian
[5] = tested on: SK-MEL-2 melanoma
[6] = tested on: SNB-19 CNS
[7] = tested on: UACC-257 melanoma
[8] = tested on: MCF7 breast
[9] = tested on: A549 NSCLC
[10] = tested on: CCRF-CEM leukemia
[11] = tested on: T-47D breast
[12] = tested on: U251 CNS
[13] = tested on: BT-549 breast
[14] = tested on: UO-31 renal
[15] = tested on: HOP-92 NSCLC
[16] = tested on: HT29 colon
[17] = tested on: TK-10 renal
[18] = tested on: RPMI-8226 leukemia
[19] = tested on: RXF 393 renal
[20] = tested on: MDA-MB-435
[21] = tested on: HCT-116 colon
[22] = tested on: K-562 leukemia
[23] = tested on: SK-MEL-5 melanoma
[24] = tested on: IGROV1 ovarian
[25] = tested on: NCI-H460 lung
[26] = tested on: HL-60(TB) leukemia
[27] = tested on: OVCAR-3 ovarian
[28] = tested on: OVCAR-8 ovarian
[29] = tested on: SK-MEL-28 melanoma
[30] = tested on: MOLT-4 leukemia
[31] = tested on: 786-0 renal
[32] = tested on: HCT-15 colon
[33] = tested on: KM12 colon
[34] = tested on: LOX IMVI melanoma
[35] = tested on: HCC-2998 colon
[36] = tested on: MDA-MB-231 breast
[37] = tested on: MALME-3M melanoma
[38] = tested on: COLO 205 colon
[39] = tested on: OVCAR-4 ovarian
[40] = tested on: M14 melanoma
[41] = tested on: SR leukemia
[42] = tested on: HOP-62 NSCLC
[43] = tested on: NCI-H23 lung
[44] = tested on: SF-295 CNS
[45] = tested on: SW-620 colon
[46] = tested on: OVCAR-5 ovarian
[47] = tested on: SNB-75 CNS
[48] = tested on: ACHN renal
[49] = tested on: PC-3 prostate
[50] = tested on: EKVX NSCLC
[51] = tested on: CAKI-1 renal
[52] = tested on: SK-OV-3 ovarian
[53] = tested on: DU-145 prostate
[54] = tested on: SN12C renal
[55] = tested on: SF-539 CNS
[56] = tested on: A498 renal
[57] = tested on: HS 578T breast
[58] = tested on: SF-268 CNS

CCN1C(=S)N(c2ccccc2)C2NC(=S)N(/N=C/C=C/c3ccccc3OC)C21 (stereo not drawn)
GI50 [1]: 0.421 µM
TGI [1]: > 100 µM
GI50 [2]: 0.224 µM
TGI [2]: 1.26 µM
GI50 [3]: 0.962 µM
TGI [3]: > 23.1 µM
GI50 [4]: 0.307 µM
TGI [4]: > 100 µM
GI50 [5]: 0.612 µM
TGI [5]: > 100 µM
GI50 [6]: 0.496 µM
TGI [6]: > 100 µM
GI50 [7]: > 100 µM
TGI [7]: > 100 µM
GI50 [8]: 0.331 µM
TGI [8]: > 100 µM
GI50 [9]: 0.607 µM
TGI [9]: > 100 µM
GI50 [10]: 0.362 µM
TGI [10]: > 100 µM
GI50 [11]: > 100 µM
TGI [11]: > 100 µM
GI50 [12]: 0.393 µM
TGI [12]: > 100 µM
GI50 [13]: 0.954 µM
GI50 [14]: 0.675 µM
TGI [14]: > 100 µM
GI50 [15]: 3.98 µM
TGI [15]: > 100 µM
GI50 [16]: 0.329 µM
TGI [17]: > 100 µM
GI50 [18]: 0.377 µM
TGI [18]: > 24.8 µM
GI50 [19]: 0.189 µM
TGI [19]: 0.65 µM
GI50 [20]: 0.0775 µM
TGI [20]: 0.337 µM
GI50 [21]: 0.36 µM
TGI [21]: > 100 µM
GI50 [22]: 0.302 µM
TGI [22]: > 100 µM
GI50 [23]: 0.322 µM
TGI [23]: 3.14 µM
GI50 [24]: 0.606 µM
TGI [24]: > 100 µM
GI50 [25]: 0.37 µM
TGI [25]: > 100 µM
GI50 [26]: 0.245 µM
TGI [26]: 0.6 µM
GI50 [27]: 0.267 µM
TGI [27]: 0.721 µM
GI50 [28]: 0.487 µM
TGI [28]: > 100 µM
GI50 [29]: 1.47 µM
TGI [29]: > 100 µM
GI50 [30]: 0.548 µM
TGI [30]: > 100 µM
GI50 [31]: 0.639 µM
TGI [31]: > 100 µM
GI50 [32]: 0.344 µM
TGI [32]: > 100 µM
GI50 [33]: 0.323 µM
TGI [33]: > 64.8 µM
GI50 [34]: 0.482 µM
TGI [34]: > 100 µM
GI50 [35]: 0.538 µM
TGI [35]: > 100 µM
GI50 [36]: 0.544 µM
TGI [36]: > 27.4 µM
GI50 [37]: 0.957 µM
TGI [37]: > 100 µM
GI50 [38]: 0.435 µM
TGI [38]: 2.16 µM
GI50 [39]: 0.839 µM
TGI [39]: > 100 µM
GI50 [40]: 0.304 µM
TGI [40]: > 100 µM
GI50 [41]: 0.3 µM
GI50 [42]: 0.487 µM
TGI [42]: > 100 µM
GI50 [43]: 0.658 µM
TGI [43]: > 100 µM
GI50 [44]: 0.263 µM
TGI [44]: > 100 µM
GI50 [45]: 0.404 µM
TGI [45]: > 100 µM
GI50 [46]: 0.69 µM
TGI [46]: > 100 µM
GI50 [47]: 0.211 µM
TGI [47]: 4.36 µM
GI50 [48]: 0.556 µM
TGI [48]: > 100 µM
GI50 [49]: 0.398 µM
TGI [49]: > 100 µM
GI50 [50]: 0.505 µM
TGI [50]: > 100 µM
GI50 [51]: 0.298 µM
TGI [51]: > 100 µM
GI50 [52]: 0.647 µM
TGI [52]: > 100 µM
GI50 [53]: 0.356 µM
TGI [53]: 28.5 µM
GI50 [54]: 0.541 µM
TGI [54]: > 100 µM
GI50 [55]: 0.253 µM
TGI [55]: 0.732 µM
GI50 [56]: 0.235 µM
TGI [56]: 0.833 µM
GI50 [57]: 0.359 µM
TGI [57]: > 100 µM
GI50 [58]: 0.706 µM
TGI [58]: > 91 µM

CCN(Cc1ccc(C)cc1)c1ccc(CO)c(Cl)c1
GI50 [1]: 0.0933 µM
TGI [1]: 0.684 µM
GI50 [2]: 11.5 µM
TGI [2]: 25.7 µM
GI50 [3]: 0.0702 µM
TGI [3]: 0.204 µM
GI50 [4]: 11.1 µM
TGI [4]: 25.3 µM
GI50 [5]: 2.2 µM
TGI [5]: 16.2 µM
GI50 [6]: 14.5 µM
TGI [6]: 31.1 µM
GI50 [7]: 0.134 µM
TGI [7]: 0.339 µM
GI50 [8]: 0.191 µM
TGI [8]: 11 µM
GI50 [9]: 1.55 µM
TGI [9]: 16.2 µM
GI50 [10]: 15.9 µM
TGI [10]: 51.3 µM
GI50 [11]: 0.149 µM
TGI [11]: 0.623 µM
GI50 [12]: 0.867 µM
TGI [12]: 14.5 µM
GI50 [13]: 5 µM
TGI [13]: 19 µM
GI50 [14]: 3.81 µM
TGI [14]: 17.7 µM
GI50 [15]: 1.86 µM
TGI [15]: 15.3 µM
GI50 [16]: 2.49 µM
TGI [16]: 14.7 µM
GI50 [17]: 0.0795 µM
TGI [17]: 0.309 µM
GI50 [18]: 3.32 µM
TGI [18]: 30.6 µM
GI50 [19]: 4.71 µM
TGI [19]: 18.9 µM
GI50 [20]: 13.7 µM
TGI [20]: 28.5 µM
GI50 [21]: 0.0966 µM
TGI [21]: 4.11 µM
GI50 [22]: 2 µM
TGI [22]: > 50.5 µM
GI50 [23]: 3.84 µM
TGI [23]: 17.7 µM
GI50 [24]: 0.108 µM
TGI [24]: 0.938 µM
GI50 [25]: 0.306 µM
TGI [25]: 11.7 µM
GI50 [26]: 5.78 µM
TGI [26]: 35.7 µM
GI50 [27]: 0.605 µM
TGI [27]: 5.31 µM
GI50 [28]: 10.6 µM
TGI [28]: 26.1 µM
GI50 [29]: 13.3 µM
TGI [29]: 26.2 µM
GI50 [30]: 17 µM
TGI [30]: 45.4 µM
GI50 [31]: 4.32 µM
TGI [31]: 19.3 µM
GI50 [32]: 6.41 µM
TGI [32]: 23.2 µM
GI50 [33]: 14.6 µM
TGI [33]: 29.6 µM
GI50 [34]: 7.05 µM
TGI [34]: 19.9 µM
GI50 [35]: 10.4 µM
TGI [35]: 22.5 µM
GI50 [36]: 12.5 µM
TGI [36]: 29.6 µM
GI50 [37]: 15.5 µM
TGI [37]: 32.2 µM
GI50 [38]: 0.996 µM
TGI [38]: 4.05 µM
GI50 [39]: 0.274 µM
TGI [39]: 4.11 µM
GI50 [40]: 10.5 µM
TGI [40]: 23.7 µM
GI50 [41]: 17.6 µM
TGI [41]: 46.8 µM
GI50 [42]: 0.779 µM
TGI [42]: 16.4 µM
GI50 [43]: 9.95 µM
TGI [43]: 25.3 µM
GI50 [44]: 1.01 µM
TGI [44]: 15.8 µM
GI50 [45]: 0.763 µM
TGI [45]: 16.5 µM
GI50 [46]: 0.171 µM
TGI [46]: 0.689 µM
GI50 [47]: 4.8 µM
TGI [47]: 20.9 µM
GI50 [48]: 10.1 µM
TGI [48]: 23.2 µM
GI50 [49]: 13.3 µM
TGI [49]: 29.5 µM
GI50 [50]: 12.9 µM
TGI [50]: 29.4 µM
GI50 [51]: 0.721 µM
TGI [51]: 9.27 µM
GI50 [52]: 4.23 µM
TGI [52]: 16.8 µM
GI50 [53]: 12.7 µM
TGI [53]: 27.4 µM
GI50 [54]: 10.6 µM
TGI [54]: 25.8 µM
GI50 [55]: 14.2 µM
TGI [55]: 28.3 µM
GI50 [56]: 0.0398 µM
TGI [56]: 0.178 µM
GI50 [57]: 12.5 µM
TGI [57]: 38.2 µM
GI50 [58]: 15 µM
TGI [58]: 30.3 µM
